According to patent US11723944B2 (priority 2015, dated 2023):

Target: BoNT/A holotoxin (Clostridium botulinum, UniProt P0DPI0)
Sequence (P0DPI0 2-448 limits assumed): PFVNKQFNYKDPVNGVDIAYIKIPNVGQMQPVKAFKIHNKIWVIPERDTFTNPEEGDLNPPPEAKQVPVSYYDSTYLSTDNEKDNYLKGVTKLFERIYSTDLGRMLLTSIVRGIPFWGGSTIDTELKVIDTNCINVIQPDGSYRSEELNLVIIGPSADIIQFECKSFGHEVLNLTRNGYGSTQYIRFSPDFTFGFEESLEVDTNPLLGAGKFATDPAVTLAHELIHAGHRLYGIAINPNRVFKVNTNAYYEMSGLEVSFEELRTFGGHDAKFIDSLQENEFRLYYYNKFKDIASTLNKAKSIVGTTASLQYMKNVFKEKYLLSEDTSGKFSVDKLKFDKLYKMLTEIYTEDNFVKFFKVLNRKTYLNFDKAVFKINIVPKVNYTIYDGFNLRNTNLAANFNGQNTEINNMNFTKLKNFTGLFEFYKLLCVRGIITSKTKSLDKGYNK

NH2-Dab(DNP)-R-[Lys(N3)-T-Dab-Pra]-L-Lys(DBCO-STP)-Tz4-G-Aib-L-[Pra-NYRWL-Lys(N3)] [Inh-2-STP]
latest time after exposure with partial rescue: ≤ 3 h | rescue from internalized BoNT (SNAP-25 cleavage): partial rescue
